Data from patent publication US20070275382A1, “Biomarkers for the Efficacy of Somatostatin Analogue Treatment” (priority 2003, published 2007).
*1 amine or outer side, *2 acyl side, *3 side chain or, on linkers, in order; H or OH if unused. Where a SMILES comes first, the peptide text is derived from it. Side-chain parts run from the residue outwards. [ ]: non-standard residue; d: D form. The star is where a group is joined. Ethylenediamine = C(CN[*:2])N[*:1]; Hyp = O=C(O)[CH]1C[CH](O)CN1; Phg = N[CH](C(=O)O)c1ccccc1; CO = O=C([*:1])[*:2]; Bn = c1ccc(C*)cc1

Tests used:
[1] = test system: Kidney; experiment: Microarray gene expression profiling (HG-U95A), kidney; assay type: in vivo, cynomolgus monkeys
Protocol: Origin of tissue and processing. Male and female cynomolgus monkeys received subcutaneously pasireotide (100 μg/animal/day) or the vehicle for 14 days. On day 15, all animals were sacrificed and tissues for RNA extraction were immediately snap-frozen and kept at −80° C. until processing.
RNA expression profiling was conducted by means of the HG-U95A gene expression probe array (Affymetrix; Santa Clara, Calif. USA), containing more than 12,600 probe sets interrogating primarily full-length human genes and also some control probe sets. The experiment was conducted according to the recommendations of the manufacturer. Briefly, total RNA was obtained by acid guanidinium thiocyanate-phenol-chloroform extraction (Trizol®, Invitrogen Life Technologies, San Diego, Calif. USA) from each frozen tissue section. The total RNA was then purified on an affinity resin (Rneasy®, Qiagen) and quantified. Double stranded cDNA was synthesized with a starting amount of approximately 5 μg full-length total RNA using the Superscript® Choice System (Invitrogen Life Technologies, Carlsbad, Calif. USA) in the presence of a T7-(dT)24 DNA oligonucleotide primer. Following synthesis, the cDNA was purified by phenol/chloroform/isoamyl alcohol extraction and ethanol precipitation. The purified cDNA was then transcribed in vitro using the BioArray® High Yield RNA Transcript Labeling Kit (ENZO, Farmingdale, N.Y. USA) in the presence of biotinylated ribonucleotides form biotin labelled cRNA. The labelled cRNA was then purified on an affinity resin (Rneasy®, Qiagen), quantified and fragmented. An amount of approximately 10 μg labelled cRNA was hybridized for 16 hours at 45° C. to an expression probe array. The array was then washed and stained twice with streptavidin-phycoerythrin (Molecular Probes,) using the GeneChip® Fluidics Workstation 400 (Affymetrix, Santa Clara, Calif. USA). The array was then scanned twice using a confocal laser scanner (GeneArray® Scanner, Agilent, Palo Alto, Calif. USA) resulting in one scanned image. This resulting “.dat-file” was processed using the MAS4 program (Affymetrix) into a “.cel-file”. The “.cel file” was captured and loaded into the Affymetrix GeneChip® Laboratory Information Management System (LIMS). The LIMS database is connected to a UNIX Sun Solaris server through a network filing system that allows for the average intensities for all probes cells (CEL file) to be downloaded into an Oracle database (NPGN). Raw data was converted to expression levels using a “target intensity” of 150. The data were evaluated for quality control and loaded in the GeneSpring® software 4.2.4 (Silicon Genetics, Calif. USA) for analysis.
On the human Affymetrix HGU95Av2 chip, probe sets for individual genes contain 20 oligonucleotide pairs, each composed of a “perfect match” 25-mer and a “mismatch” 25-mer differing from the “perfect” match oligonucleotide at a single base. After probe labelling, hybridization, and laser scanning, the expression level was estimated by averaging the differences in signal intensity measured by oligonucleotide pairs of a given probe (AvgDiff value). The fold changes and directions were calculated for selected genes, from the differences of the AvgDiff values between controls and treated.
To identify genes that were impacted by pasireotide, the dataset was initially filtered to exclude in a first wave of analysis, genes whose values were systematically in the lower expression ranges where the experimental noise is high (at least 80 in a number of experiments corresponding to the smallest number of replicas of any experimental point). In a second round of selection a threshold p-value of 0.05 (based on a t-test) identified differences between treated and control based on a two component error model (Global Error Model) and, whenever possible, with a stepdown correction for multi-hypothesis testing (Benjamini and Hochberg false discovery rate). […]

[2] = biological target: T1, hSST-4 (Homo sapiens, UniProt P31391); details: background statement; cited from earlier work
T1 construct: expressed in transfected cells; host or cells: CHO cells
T1 sequence (P31391 whole entry): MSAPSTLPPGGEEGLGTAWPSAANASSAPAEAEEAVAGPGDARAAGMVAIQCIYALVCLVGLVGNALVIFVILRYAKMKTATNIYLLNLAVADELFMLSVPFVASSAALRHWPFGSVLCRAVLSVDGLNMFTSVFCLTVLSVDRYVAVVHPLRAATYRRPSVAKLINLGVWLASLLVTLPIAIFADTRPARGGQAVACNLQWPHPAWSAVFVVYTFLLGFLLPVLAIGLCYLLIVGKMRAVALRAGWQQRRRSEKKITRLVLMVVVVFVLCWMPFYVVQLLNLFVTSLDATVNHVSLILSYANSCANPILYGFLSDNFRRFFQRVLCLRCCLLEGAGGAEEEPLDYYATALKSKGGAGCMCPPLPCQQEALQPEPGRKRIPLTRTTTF

[3] = ↑ increase, treated vs controls
[4] = ↓ decrease, treated vs controls

NCCCCC1NC(=O)C(Cc2c[nH]c3ccccc23)NC(=O)C(c2ccccc2)NC(=O)C2CC(OC(=O)NCCN)CN2C(=O)C(Cc2ccccc2)NC(=O)C(Cc2ccc(OCc3ccccc3)cc2)NC1=O (stereo not drawn) [Pasireotide, cyclo[4-(NH2—C2H4—NH—CO—O)Pro-Phg-DTrp-Lys-Tyr(4-Bzl)-Phe]] (cyclo(F[Hyp]([CO-Ethylenediamine])[Phg]WKY(Bn)); configuration not given here)
IGF-1 expression level, AvgDiff (range) ([1]; 0.1 mg/animal/14day): 25 (20 to 39) | IGFBP2 expression level, AvgDiff (range) ([1]; 0.1 mg/animal/14day): 563 (457 to 655) | IR expression level, AvgDiff (range) ([1]; 0.1 mg/animal/14day): 196 (163 to 265) | SSTR2 expression level, AvgDiff (range) ([1]; 0.1 mg/animal/14day): 126 (93 to 158) | SSTR3 expression level, AvgDiff (range) ([1]; 0.1 mg/animal/14day): 82 (33 to 120) | Adrenomedullin RNA expression fold change [1, 3]: ↑ x1.5 | Arginine vasopressin (neurophysin II, antidiuretic hormone, diabetes insipidus, neurohypophyseal) RNA expression fold change [1, 3]: ↑ x2 | CDC37 (cell division cycle 37, S. cerevisiae, homolog) RNA expression fold change [1, 3]: homolog) ↑ x1.5 | CSF-1 receptor, formerly McDonough feline sarcoma viral (v-fms) oncogene homolog RNA expression fold change [1, 3]: homolog ↑ x2.5 | Ca++ channel, voltage-dependent, α 1H subunit RNA expression fold change [1, 3]: subunit ↑ x2 | Calcium/calmodulin-dependent protein kinase kinase 2, β RNA expression fold change [1, 3]: ↑ x1.5 | Cdk 5, regulatory subunit 2 (p39) RNA expression fold change [1, 3]: ↑ x1.5 | Cdki 1A (p21, Cip 1) RNA expression fold change [1, 3]: Cip 1) ↑ x5 | Corticotropin releasing hormone receptor type 2 beta isoform RNA expression fold change [1, 3]: ↑ x1.5 | Dopamine receptor D2 RNA expression fold change [1, 3]: ↑ x4.5 | Fas/Apo-1/CD95 RNA expression fold change [1, 3]: ↑ x1.5 | GABA (A) receptor, γ2 precursor RNA expression fold change [1, 3]: precursor ↑ x2 | GFR-bound protein 7 RNA expression fold change [1, 3]: protein 7 ↑ x2 | GFR-bound protein 14 RNA expression fold change [1, 3]: protein 14 ↑ x2 | Growth arrest-specific 6 RNA expression fold change [1, 3]: specific 6 ↑ x1.5 | IGFBP2 RNA expression fold change [1, 3]: IGFBP2 ↑ x1.5 | IL-7 R precursor RNA expression fold change [1, 3]: ↑ x2 | IRF5 RNA expression fold change [1, 3]: IRF5 ↑ x2 | K+ voltage-gated channel, Shaw-related subfamily, member 3 RNA expression fold change [1, 3]: member 3 ↑ x2.5 | LIF (cholinergic differentiation factor) RNA expression fold change [1, 3]: factor) ↑ x2 | Natriuretic peptide receptor A/guanylate cyclase A (atrionatriuretic peptide receptor A) RNA expression fold change [1, 3]: A) ↑ x2 | Opioid receptor, δ1 RNA expression fold change [1, 3]: δ1 ↑ x2.5 | PDGFR, α polypeptide RNA expression fold change [1, 3]: polypeptide ↑ x1.5 | Putative chemokine receptor; GTP-binding protein RNA expression fold change [1, 3]: ↑ x2 | SSTR2 RNA expression fold change [1, 3]: SSTR 2↑ x2 | SSTR 3 RNA expression fold change [1, 3]: SSTR 3↑ x3 | Solute carrier family 9 (Na+/H+ exchanger) isoform 3 regulatory factor 1 RNA expression fold change [1, 3]: ↑ x2 | TGF, β1 RNA expression fold change [1, 3]: TGF, β 1 ↑ x1.5 | THR binding protein RNA expression fold change [1, 3]: protein ↑x1.5 | THR, α (avian erythroblastic leukaemia viral (v-erb-a) oncogene homolog) RNA expression fold change [1, 3]: homolog) ↑x1.5 | TNFR superfamily, member 12 RNA expression fold change [1, 3]: ↑ x2 | VWF precursor RNA expression fold change [1, 3]: precursor ↑ x2 | δ sleep inducing peptide, immunoreactor RNA expression fold change [1, 3]: x2.5 | Acetylserotonin O-methyl transferase-like RNA expression fold change [1, 4]: ↓ x3 | Angiotensin receptor 1B RNA expression fold change [1, 4]: 1B ↓ x1.5 | Calmodulin 3 (phosphorrylase kinase, δ) RNA expression fold change [1, 4]: ↓ x1.5 | Cdk (CDC2-like) RNA expression fold change [1, 4]: ↓ x2 | Death effecter domain-containing RNA expression fold change [1, 4]: ↓ x3.5 | Glucocorticoid receptor DNA binding factor 1 RNA expression fold change [1, 4]: ↓ x4.5 | Glutamate receptor, metabotropic 2 precursor RNA expression fold change [1, 4]: precursor ↓ x3 | IGF-1 RNA expression fold change [1, 4]: IGF-1 ↓ x2.5 | IGF-2 RNA expression fold change [1, 4]: IGF-2 ↓ x2 | Insulin receptor RNA expression fold change [1, 4]: ↓ x3 | Na+ channel, nonvoltage-gated 1, β (Liddle syndrome) RNA expression fold change [1, 4]: syndrome) ↓ x2 | PG-endoperoxide synthase 1 (prostaglandin G/H synthase and cyclooxygenase) RNA expression fold change [1, 4]: ↓ x3.5 | PI-3-kinase, catalytic, α polypeptide RNA expression fold change [1, 4]: polypeptide ↓ x3 | PP 3 (formerly 2B), catalytic subunit, β isoform (calcineurin A β) RNA expression fold change [1, 4]: A β) ↓ x2 | Solute carrier family 6 (neurotransmitter transporter, creatin), member 8 RNA expression fold change [1, 4]: ↓ x3 | THR-associated protein, 240kδ subunit RNA expression fold change [1, 4]: subunit ↓ x1.5 | TNF, α-induced protein 3 RNA expression fold change [1, 4]: ↓ x1.5 | Vasopressin-activated calcium-mobilizing receptor-1 RNA expression fold change [1, 4]: receptor-1 ↓ x2 | binding to SSTR4 [2]: binds to all somatostatin receptors except SSTR4
